pIC50: −log10 of the molar value.

Chain of human Cereblon WT GST-tagged protein (Q96SW2 whole entry): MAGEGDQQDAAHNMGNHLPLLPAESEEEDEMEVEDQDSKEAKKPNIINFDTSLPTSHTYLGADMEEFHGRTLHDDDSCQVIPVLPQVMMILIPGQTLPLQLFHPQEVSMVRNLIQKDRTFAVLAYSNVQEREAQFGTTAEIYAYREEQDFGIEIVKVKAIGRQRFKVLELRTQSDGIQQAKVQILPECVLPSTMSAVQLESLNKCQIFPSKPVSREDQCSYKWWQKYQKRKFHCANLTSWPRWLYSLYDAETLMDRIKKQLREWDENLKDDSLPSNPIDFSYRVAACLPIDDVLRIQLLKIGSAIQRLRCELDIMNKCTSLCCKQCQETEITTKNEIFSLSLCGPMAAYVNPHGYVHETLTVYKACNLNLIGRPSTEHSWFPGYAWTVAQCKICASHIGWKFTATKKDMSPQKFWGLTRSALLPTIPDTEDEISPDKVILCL

In this experiment the target is human Cereblon WT GST-tagged protein (Homo sapiens (Human), UniProt Q96SW2). The experiment is described as follows: CRBN-binding affinity, HTRF (CEREBLON BINDING kit, CISBIO). As to conditions: HTRF inhibitory activity. The method, then:
I. Determination of CRBN-binding affinity of compounds of the present disclosure:
The CEREBLON BINDING kits (specification: 10,000 tests; product number: Catalog #64BDCRBNPEH; CISBIO company) was used to determine the CRBN binding ability of the compounds to be tested through a HTRF method (homogeneous time-resolved fluorescence). The specific methods are as follows: • 1. […] Then, 2.5 μL of human Cereblon WT GST-tagged protein solution was added to each well. Finally, 5 μL of the thoroughly mixed Thalidomide-Red reagent and GST Eu antibody working solution were added to each of the aforementioned wells. […] The blank control wells were sequentially added with 2.5 μL of diluent #9 (1X) solution, 2.5 μL of PROTAC binding buffer, and 5 μL of thoroughly mixed Thalidomide-Red reagent and GST Eu antibody working solution. • 4.
The corresponding CRBN binding inhibition rate was calculated using the following method: […]
OD 620 nmcompound is the absorbance value of each well of the compounds to be tested of the present disclosure at an emission wavelength of 620 nm. […] OD 620 nmcontrol is the absorbance value of the blank control well at an emission wavelength of 620 nm. […] OD 620 nmStd0 is the absorbance value of the solvent control well at an emission wavelength of 620 nm.
For orientation: Time-resolved FRET reads energy transfer from a long-lived donor to a nearby acceptor.
`O=C1CCC(N2Cc3cc(C(=O)N4C5CCC4CN(C(c4ccccc4)c4ccccc4)C5)ccc3C2=O)C(=O)N1` (stereo not drawn) [GT-05983, 3-(5-(3-benzhydryl-3,8-diazabicyclo[3.2.1]octane-8-carbonyl)-1-oxoisoindolin-2-yl)piperidine-2,6-dione]: the pIC50 (commonly −log10 of the IC50, conventionally taken in molar units) was 6.00 to 6.30.
As to `O=C1CCC(N2Cc3c(C(=O)N4CCN(C(c5ccc(Cl)cc5)c5ccc(Cl)cc5)CC4)cccc3C2=O)C(=O)N1` (stereo not drawn) [GT-05985, 3-(4-(4-(bis(4-chlorophenyl)methyl)piperazine-1-carbonyl)-1-oxoisoindolin-2-yl)piperidine-2,6-dione], the pIC50 is 6.00 to 6.30.
The compound `O=C1CCC(N2Cc3cc(C(=O)N4C[C@H]5C[C@@H]4CN5C(c4ccccc4)c4ccccc4)ccc3C2=O)C(=O)N1` (stereo partly drawn) [GT-05990, 3-(5-((1R,4R)-5-benzhydryl-2,5-diazabicyclo[2.2.1]heptane-2-carbonyl)-1-oxoisoindolin-2-yl)piperidine-2,6-dione] had a pIC50 of more than 6.30.
The result for `O=C1CCC(N2Cc3cc(C(=O)N4C[C@H]5C[C@@H]4CN5C(c4ccccc4)c4ccccc4)cc(F)c3C2=O)C(=O)N1` (stereo partly drawn) [GT-05991, 3-(5-((1R,4R)-5-benzhydryl-2,5-diazabicyclo[2.2.1]heptane-2-carbonyl)-7-fluoro-1-oxoisoindolin-2-yl)piperidine-2,6-dione] reads more than 6.30; that for `O=C1CCC(N2Cc3cc(CN4CCC5(CC4)CCN(C(c4ccccc4)c4ccccc4)CC5)ccc3C2=O)C(=O)N1` (stereo not drawn) [GT-06002, 3-(5-((9-benzhydryl-3,9-diazaspiro[5.5]undecan-3-yl)methyl)-1-oxoisoindolin-2-yl)piperidine-2,6-dione], 6.00 to 6.30.
As for `O=C1CCC(N2Cc3c(ccc(CN4CCC5(CC4)CCN(C(c4ccccc4)c4ccccc4)CC5)c3F)C2=O)C(=O)N1` (stereo not drawn) [GT-06024, 3-(5-((9-benzhydryl-3,9-diazaspiro[5.5]undecan-3-yl)methyl)-4-fluoro-1-oxoisoindolin-2-yl)piperidine-2,6-dione], the figure is 6.00 to 6.30.
`O=C1CCC(N2Cc3cc(CN4CCC5(CC4)CCN(C(c4ccccc4)c4ccccc4)CC5)c(F)cc3C2=O)C(=O)N1` (stereo not drawn) [GT-06025, 3-(5-((9-benzhydryl-3,9-diazaspiro[5.5]undecan-3-yl)methyl)-6-fluoro-1-oxoisoindolin-2-yl)piperidine-2,6-dione] had a negative logarithm of the IC50 (pIC50) of 6.00 to 6.30.
As for `O=C1CCC(N2Cc3cc(CN4CCC5(CC4)CCN(C(c4ccccc4)c4ccccc4)CC5)cc(F)c3C2=O)C(=O)N1` (stereo not drawn) [GT-06026, 3-(5-((9-benzhydryl-3,9-diazaspiro[5.5]undecan-3-yl)methyl)-7-fluoro-1-oxoisoindolin-2-yl)piperidine-2,6-dione], the figure is 6.00 to 6.30; as for `O=C1CCC(N2Cc3cc(C(=O)N4C5CCC4CN(C(c4ccccc4)c4ccccc4)C5)cc(F)c3C2=O)C(=O)N1` (stereo not drawn) [GT-06055, 3-(5-(3-benzhydryl-3,8-diazabicyclo[3.2.1]octane-8-carbonyl)-7-fluoro-1-oxoisoindolin-2-yl)piperidine-2,6-dione], more than 6.30; as for `O=C1CCC(N2Cc3cc(C(=O)N4CC5CCC4CN5C(c4ccccc4)c4ccccc4)ccc3C2=O)C(=O)N1` (stereo not drawn) [GT-06056, 3-(5-(5-benzhydryl-2,5-diazabicyclo[2.2.2]octane-2-carbonyl)-1-oxoisoindolin-2-yl)piperidine-2,6-dione], more than 6.30.
Compound `O=C1CCC(N2Cc3cc(C(=O)N4CC5CCC4CN5C(c4ccccc4)c4ccccc4)cc(F)c3C2=O)C(=O)N1` (stereo not drawn) [GT-06057, 3-(5-(5-benzhydryl-2,5-diazabicyclo[2.2.2]octane-2-carbonyl)-7-fluoro-1-oxoisoindolin-2-yl)piperidine-2,6-dione] gave a negative-log IC50 (pIC50) of more than 6.30.
As for `CC1CN(C(=O)c2ccc3c(c2)CN(C2CCC(=O)NC2=O)C3=O)CC(C)N1C(c1ccccc1)c1ccccc1` (stereo not drawn) [GT-06059, 3-(5-(4-benzhydryl-3,5-dimethylpiperazine-1-carbonyl)-1-oxoisoindolin-2-yl)piperidine-2,6-dione], the figure is more than 6.30.
The result for `CC1CN(C(=O)c2cc(F)c3c(c2)CN(C2CCC(=O)NC2=O)C3=O)CC(C)N1C(c1ccccc1)c1ccccc1` (stereo not drawn) [GT-06060, 3-(5-(4-benzhydryl-3,5-dimethylpiperazine-1-carbonyl)-7-fluoro-1-oxoisoindolin-2-yl)piperidine-2,6-dione] reads 6.00 to 6.30; that for `CC1(C)CN(C(=O)c2cc(F)c3c(c2)CN(C2CCC(=O)NC2=O)C3=O)CCN1C(c1ccccc1)c1ccccc1` (stereo not drawn) [GT-06062, 3-(5-(4-benzhydryl-3,3-dimethylpiperazine-1-carbonyl)-7-fluoro-1-oxoisoindolin-2-yl)piperidine-2,6-dione], 6.00 to 6.30; that for `O=C1CCC(N2Cc3cc(C(=O)N4CCN(C5c6cc(Cl)ccc6-c6ccc(Cl)cc65)CC4)ccc3C2=O)C(=O)N1` (stereo not drawn) [GT-06069, 3-(5-(4-(2,7-dichloro-9H-fluoren-9-yl)piperazine-1-carbonyl)-1-oxoisoindolin-2-yl)piperidine-2,6-dione], 6.00 to 6.30.
The result for `O=C1CCC(N2Cc3c(ccc(C4=CCN(C(c5ccccc5)c5ccccc5)CC4)c3F)C2=O)C(=O)N1` (stereo not drawn) [GT-06072, 3-(5-(1-benzhydryl-1,2,3,6-tetrahydropyridin-4-yl)-4-fluoro-1-oxoisoindolin-2-yl)piperidine-2,6-dione] reads more than 6.30; that for `O=C1CCC(N2Cc3cc(CN4CCN(C(c5ccccc5)c5ccccc5)CC4C(F)(F)F)cc(F)c3C2=O)C(=O)N1` (stereo not drawn) [GT-06098, 3-(5-((4-benzhydryl-2-(trifluoromethyl)piperazin-1-yl)methyl)-7-fluoro-1-oxoisoindolin-2-yl)piperidine-2,6-dione], more than 6.30; that for `O=C1CCC(N2Cc3cc(CN4CCN(C(c5ccccc5)c5cccnc5)CC4)cc(F)c3C2=O)C(=O)N1` (stereo not drawn) [GT-06111, 3-(7-fluoro-1-oxo-5-((4-(phenyl(pyridin-3-yl)methyl)piperazin-1-yl)methyl)isoindolin-2-yl)piperidine-2,6-dione], more than 6.30.
For the compound `O=C1CCC(N2Cc3c(CN4CCN(C(c5ccccc5)c5cccnc5)CC4)cccc3C2=O)C(=O)N1` (stereo not drawn) [GT-06113, 3-(1-oxo-4-((4-(phenyl(pyridin-3-yl)methyl)piperazin-1-yl)methyl)isoindolin-2-yl)piperidine-2,6-dione], the negative-log IC50 (pIC50) was 6.00 to 6.30.
As for `O=C1CCC(N2Cc3ccc(CN4CCN(C(c5cccc(F)c5)c5cccc(F)c5)CC4)cc3C2=O)C(=O)N1` (stereo not drawn) [GT-06116, 3-(6-((4-(bis(3-fluorophenyl)methyl)piperazin-1-yl)methyl)-1-oxoisoindolin-2-yl)piperidine-2,6-dione], the figure is 6.00 to 6.30; as for `O=C1CCC(N2Cc3cc(CN4CCN(C(c5ccccc5)c5ccncc5)CC4)cc(F)c3C2=O)C(=O)N1` (stereo not drawn) [GT-06135, 3-(7-fluoro-1-oxo-5-((4-(phenyl(pyridin-4-yl)methyl)piperazin-1-yl)methyl)isoindolin-2-yl)piperidine-2,6-dione], more than 6.30.
In turn, `O=C1CCC(N2Cc3c(ccc(C4CCN(C(c5ccccc5)c5ccccc5)CC4)c3F)C2=O)C(=O)N1` (stereo not drawn) [GT-06136, 3-(5-(1-benzhydrylpiperidin-4-yl)-4-fluoro-1-oxoisoindolin-2-yl)piperidine-2,6-dione] showed a pIC50 of more than 6.30.
The result for `O=C1CCC(N2Cc3cc(C(=O)N4CCN(C(c5ccccc5)c5ccncc5)CC4)ccc3C2=O)C(=O)N1` (stereo not drawn) [GT-06144, 3-(1-oxo-5-(4-(phenyl(pyridin-4-yl)methyl)piperazine-1-carbonyl)isoindolin-2-yl)piperidine-2,6-dione] reads 6.00 to 6.30; that for `O=C1CCC(N2Cc3ccc(C(=O)N4CCN(C(c5cccc(F)c5)c5cccc(F)c5)CC4)cc3C2=O)C(=O)N1` (stereo not drawn) [GT-06149, 3-(6-(4-(bis(3-fluorophenyl)methyl)piperazine-1-carbonyl)-1-oxoisoindolin-2-yl)piperidine-2,6-dione], 6.00 to 6.30.
For the compound `O=C1CCC(N2Cc3cccc(C(=O)N4CCN(C(c5cccc(F)c5)c5cccc(F)c5)CC4)c3C2=O)C(=O)N1` (stereo not drawn) [GT-06150, 3-(7-(4-(bis(3-fluorophenyl)methyl)piperazine-1-carbonyl)-1-oxoisoindolin-2-yl)piperidine-2,6-dione], the pIC50 is 6.00 to 6.30.
The result for `O=C1CCC(N2Cc3cc(C4CCN(C(c5ccccc5)c5ccccc5)CC4)cc(F)c3C2=O)C(=O)N1` (stereo not drawn) [GT-06198, 3-(5-(1-benzhydrylpiperidin-4-yl)-7-fluoro-1-oxoisoindolin-2-yl)piperidine-2,6-dione] reads more than 6.30; that for `O=C1CCC(N2Cc3cc(NC4CCC(N(c5ccccc5)c5ccccc5)CC4)ccc3C2=O)C(=O)N1` (stereo not drawn) [GT-06806, 3-(5-((4-(diphenylamino)cyclohexyl)amino)-1-oxoisoindolin-2-yl)piperidine-2,6-dione], 5.72 to 6.00.
